Where “and” joins values, the source holds several entries; their conditions need not be identical. Equal entries are not always repeated. Calls of active or inactive are those of the source.
Columns and labels:
[1] = alpha-synuclein stem-loop luciferase translation blockers – H4 neuroglioma cells, luminescence, confirmation (AID 1988); type: functional, cell-based
[2] = HEK-293T viability loss after treatment – luminescence, T-cell screen hits, cytotoxicity control for TCR NF-kB inhibitor project, dose response (AID 489026); type: functional, cell-based;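 further: cells exposed to compound about 14 hours before the viability readout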
[3] = luciferase reporter signal suppression in cells – H4 neuroglioma cells, luminescence, dose response (AID 1990); type: functional, cell-based
[4] = Luminescence Cell-Based Dose Response HTS to Identify Inhibitors of 5'UTR Stem-Loop Driven Prion Protein mRNA Translation in H4 Neuroglioblastoma Cells. [Related pubchem assays: 1827 (Project Summary), 1813 (Primary HTS)]; type: functional
[5] = alpha-synuclein stem-loop translation blockers – luminescence, H4 neuroglioblastoma cells, dose confirmation, confirmation (AID 2454); type: functional, cell-based;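 further: H4 neuroglioblastoma cells carrying an alpha-synuclein 5'UTR luciferase reporter; potency for inhibition of the luciferase signal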
cells = type: functional, cell-based
[6] = luciferase reporter signal reduction – luminescence, H4-C neuroglioblastoma cells, dose response (AID 2458); type: functional, cell-based;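 further: H4 neuroglioblastoma cells stably carrying a luciferase reporter gene fusion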
[7] = molecular target: T1, Heat shock factor protein 1 (Mus musculus, UniProt P38532); test: decrease of HSF1-responsive luciferase luminescence – cell-based, NIH3T3, dose retest, confirmation (AID 2382); type: functional;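 further: NIH3T3 fibroblasts with HSF1-driven luciferase reporter stressed by proteasome inhibitor MG132; luminescence from HSF1-driven luciferase expression after 8 hours of MG132 stress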
T1 sequence (P38532 whole entry): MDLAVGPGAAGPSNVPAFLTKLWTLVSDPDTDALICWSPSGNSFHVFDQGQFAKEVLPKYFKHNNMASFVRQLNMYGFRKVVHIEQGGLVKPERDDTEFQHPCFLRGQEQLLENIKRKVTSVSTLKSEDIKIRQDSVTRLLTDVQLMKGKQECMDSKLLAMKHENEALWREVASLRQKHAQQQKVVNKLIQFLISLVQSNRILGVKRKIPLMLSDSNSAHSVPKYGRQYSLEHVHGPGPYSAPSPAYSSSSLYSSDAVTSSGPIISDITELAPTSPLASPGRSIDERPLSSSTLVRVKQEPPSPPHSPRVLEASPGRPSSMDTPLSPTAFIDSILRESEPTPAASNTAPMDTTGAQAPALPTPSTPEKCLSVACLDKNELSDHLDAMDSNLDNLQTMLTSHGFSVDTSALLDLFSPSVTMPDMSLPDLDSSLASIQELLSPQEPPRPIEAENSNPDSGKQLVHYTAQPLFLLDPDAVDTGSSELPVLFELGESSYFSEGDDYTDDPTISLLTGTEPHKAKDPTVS

[8] = molecular target: T2, Rac GTPase-activating protein 1 (Homo sapiens, UniProt Q9H0H5); test: blockers of MgcRacGAP-driven Rac1 GTP hydrolysis – biochemical, ADP Hunter fluorescence, primary and confirmatory, confirmation (AID 624330); type: functional
T2 sequence (Q9H0H5 whole entry): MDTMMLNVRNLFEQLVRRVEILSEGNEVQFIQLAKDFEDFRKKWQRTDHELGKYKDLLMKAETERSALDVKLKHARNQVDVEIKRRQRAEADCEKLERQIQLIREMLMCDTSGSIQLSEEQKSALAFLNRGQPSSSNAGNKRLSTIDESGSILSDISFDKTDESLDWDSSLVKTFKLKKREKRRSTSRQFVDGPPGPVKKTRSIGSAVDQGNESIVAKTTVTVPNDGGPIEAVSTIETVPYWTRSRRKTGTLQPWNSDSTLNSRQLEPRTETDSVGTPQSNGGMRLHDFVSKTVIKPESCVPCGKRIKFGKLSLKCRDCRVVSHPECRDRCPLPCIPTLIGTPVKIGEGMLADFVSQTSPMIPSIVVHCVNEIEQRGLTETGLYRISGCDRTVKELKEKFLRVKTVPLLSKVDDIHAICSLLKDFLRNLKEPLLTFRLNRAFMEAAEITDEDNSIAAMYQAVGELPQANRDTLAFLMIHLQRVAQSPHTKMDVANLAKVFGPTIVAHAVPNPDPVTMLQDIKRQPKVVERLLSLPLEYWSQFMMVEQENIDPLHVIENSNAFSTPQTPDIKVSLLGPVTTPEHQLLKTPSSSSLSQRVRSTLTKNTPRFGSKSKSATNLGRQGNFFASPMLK

HT-1080 = test: HT1080 cell viability loss – fluorescence readout (AID 620); type: functional, cell-based; settings: Homo sapiens
[9] = molecular target: Luciferin 4-monooxygenase (Photinus pyralis, UniProt P08659); test: Counter Screen for Luciferase-based Assay Positives. [Related pubchem assays: 620, 618, 411 ]
[10] = molecular target: T3, Neuropeptide Y receptor type 1 (Homo sapiens, UniProt P25929); type: functional;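 further: HEK293 cells with a CNG channel challenged with NPY then isoproterenol; potency as antagonist that reverses NPY suppression of cAMP signal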
T3 sequence (P25929 whole entry): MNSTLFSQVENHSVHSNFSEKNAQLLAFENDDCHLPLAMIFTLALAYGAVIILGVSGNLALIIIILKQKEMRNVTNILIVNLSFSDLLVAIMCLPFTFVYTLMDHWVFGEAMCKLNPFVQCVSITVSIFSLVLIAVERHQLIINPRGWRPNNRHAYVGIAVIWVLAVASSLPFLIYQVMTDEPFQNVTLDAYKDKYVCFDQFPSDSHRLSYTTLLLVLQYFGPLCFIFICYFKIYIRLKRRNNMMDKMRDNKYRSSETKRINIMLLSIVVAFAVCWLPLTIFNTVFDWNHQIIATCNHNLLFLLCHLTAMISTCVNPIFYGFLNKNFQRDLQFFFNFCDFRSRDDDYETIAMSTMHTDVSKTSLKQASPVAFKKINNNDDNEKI

[11] = molecular target: T4, Neuropeptide Y receptor type 2 (Homo sapiens, UniProt P49146); type: functional, cell-based;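 further: HEK293 cells expressing the receptor and a CNG channel; stimulus was NPY near EC95 followed by isoproterenol to raise cAMP; antagonist potency measured as restoring cAMP signal that NPY suppresses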
T4 sequence (P49146 whole entry): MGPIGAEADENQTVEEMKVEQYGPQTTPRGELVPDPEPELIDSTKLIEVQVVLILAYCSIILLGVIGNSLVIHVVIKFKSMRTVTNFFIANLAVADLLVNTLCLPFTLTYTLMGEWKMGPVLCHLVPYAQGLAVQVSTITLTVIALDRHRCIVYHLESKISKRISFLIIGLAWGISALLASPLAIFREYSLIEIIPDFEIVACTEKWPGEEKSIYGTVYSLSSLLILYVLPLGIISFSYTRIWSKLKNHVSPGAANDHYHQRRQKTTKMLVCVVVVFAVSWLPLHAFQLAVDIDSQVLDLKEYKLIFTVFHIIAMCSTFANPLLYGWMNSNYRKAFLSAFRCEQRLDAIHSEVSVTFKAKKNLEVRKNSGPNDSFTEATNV

Estrogen receptor beta [12] = molecular target: T5, Estrogen receptor beta (Homo sapiens, UniProt Q92731);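 further: recombinant ER-beta bound to coactivator SRC1 peptide in presence of estradiol agonist; inhibitors block coactivator peptide binding and lower the FRET signal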
Estrogen receptor beta [13] = molecular target: T5, Estrogen receptor beta; test: blockers of SRC-3 recruitment to ERβ – biochemical, ELISA, streptavidin-HRP readout, orthogonal assay, confirmation (AID 1060)
Estrogen receptor = molecular target: T6, Estrogen receptor (Homo sapiens, UniProt P03372);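 further: potency for inhibiting coactivator peptide recruitment to the receptor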
T6 sequence (P03372 whole entry): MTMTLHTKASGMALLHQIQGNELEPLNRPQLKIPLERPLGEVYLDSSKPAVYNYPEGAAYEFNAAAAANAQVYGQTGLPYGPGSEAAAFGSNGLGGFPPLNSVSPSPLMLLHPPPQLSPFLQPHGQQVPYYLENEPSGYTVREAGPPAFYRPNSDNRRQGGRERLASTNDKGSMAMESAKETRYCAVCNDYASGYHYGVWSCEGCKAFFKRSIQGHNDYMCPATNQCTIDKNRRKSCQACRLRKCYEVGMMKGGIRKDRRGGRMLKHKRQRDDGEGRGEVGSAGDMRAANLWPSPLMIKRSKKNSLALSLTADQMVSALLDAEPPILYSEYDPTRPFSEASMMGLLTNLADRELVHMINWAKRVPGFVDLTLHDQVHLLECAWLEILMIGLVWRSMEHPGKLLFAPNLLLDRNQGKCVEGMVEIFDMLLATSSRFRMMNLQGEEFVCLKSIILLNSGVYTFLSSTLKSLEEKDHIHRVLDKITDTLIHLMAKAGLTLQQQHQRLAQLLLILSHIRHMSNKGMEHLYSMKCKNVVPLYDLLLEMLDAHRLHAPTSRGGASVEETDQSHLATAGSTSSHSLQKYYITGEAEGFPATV

T5 sequence (Q92731 whole entry): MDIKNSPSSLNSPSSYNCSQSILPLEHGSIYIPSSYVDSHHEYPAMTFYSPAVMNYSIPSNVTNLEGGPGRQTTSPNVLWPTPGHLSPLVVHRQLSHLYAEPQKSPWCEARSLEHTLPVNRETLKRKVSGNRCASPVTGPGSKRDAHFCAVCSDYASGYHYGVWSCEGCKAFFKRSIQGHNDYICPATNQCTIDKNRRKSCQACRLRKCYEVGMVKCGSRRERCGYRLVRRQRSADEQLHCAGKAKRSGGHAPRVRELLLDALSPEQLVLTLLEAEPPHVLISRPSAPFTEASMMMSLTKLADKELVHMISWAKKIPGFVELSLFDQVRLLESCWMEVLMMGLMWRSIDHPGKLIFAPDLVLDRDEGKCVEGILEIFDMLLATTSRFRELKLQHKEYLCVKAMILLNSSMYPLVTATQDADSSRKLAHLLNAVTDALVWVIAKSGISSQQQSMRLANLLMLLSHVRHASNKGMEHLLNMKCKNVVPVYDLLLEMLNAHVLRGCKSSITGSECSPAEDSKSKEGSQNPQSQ
Luciferin 4-monooxygenase, sequence (P08659 whole entry): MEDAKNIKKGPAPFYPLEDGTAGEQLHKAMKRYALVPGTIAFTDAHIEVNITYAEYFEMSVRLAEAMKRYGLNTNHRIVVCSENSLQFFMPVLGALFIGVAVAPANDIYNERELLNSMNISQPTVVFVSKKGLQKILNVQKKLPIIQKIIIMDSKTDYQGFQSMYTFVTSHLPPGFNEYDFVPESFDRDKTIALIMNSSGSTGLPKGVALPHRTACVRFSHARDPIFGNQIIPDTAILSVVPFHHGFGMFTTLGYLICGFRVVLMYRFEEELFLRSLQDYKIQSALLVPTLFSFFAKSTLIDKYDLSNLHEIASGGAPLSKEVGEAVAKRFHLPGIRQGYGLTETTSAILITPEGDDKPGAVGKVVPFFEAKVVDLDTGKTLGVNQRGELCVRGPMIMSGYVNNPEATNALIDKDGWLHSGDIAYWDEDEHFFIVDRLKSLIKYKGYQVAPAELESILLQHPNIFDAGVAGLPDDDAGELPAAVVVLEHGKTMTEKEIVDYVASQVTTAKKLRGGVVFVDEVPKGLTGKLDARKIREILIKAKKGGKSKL

For O=[N+]([O-])c1nn(-c2ccc3c(c2)OCCO3)[n+]([O-])c1Nc1ccccc1, the EC50 [1] was < 0.1 µM (active), the IC50 [2] was > 80 µM (inactive) and the EC50 [3] was < 0.1 µM (active). The EC50 [4] was < 0.1 µM (active), the EC50 [5] was 0.09 µM (active) and the EC50 (cells) was 4.89 µM (active). The EC50 [6] was 0.098 µM (active) and the EC50 [7] was < 0.16 µM (active).

For CNc1nnc(-c2ccc(N(C)C)cc2)s1, the IC50 [8] was 99.3 µM (active), the EC50 (HT-1080) was > 50 µM (not active) and the EC50 [9] was 2.54 µM (active).

In the case of CCCCOc1nc2ccccc2c(=O)n1-c1ccccc1, the IC50 [10] is reported as 13.2 µM (not active) and the IC50 [11] is reported as 8.15 µM (active).

With c1ccc(OCc2nnc3sc(C4COc5ccccc5O4)nn23)cc1 (stereo unspecified) the IC50 (Estrogen receptor beta [12]) was > 50 µM (not active), the IC50 (Estrogen receptor beta [13]) was < 23 nM (not active) and the IC50 (Estrogen receptor) was 9.55 µM (active).

In the case of CN1C(=O)CSc2ccc(NC(=O)N3CCC(N4CCCCC4)CC3)cc21, the IC50 (Estrogen receptor beta [12]) is reported as 6.24 µM (active), the IC50 (Estrogen receptor beta [13]) is reported as < 77 µM (not active) and < 23 nM (not active) and the IC50 (Estrogen receptor) is reported as 11.8 µM (active).

For c1ccc(-c2noc(-c3cccs3)n2)nc1, the EC50 (HT-1080) was > 50 µM (not active) and the EC50 [9] was > 100 µM (not active).
